Like-named read-outs stand apart in the source and are kept apart here.

Assay [1] addresses CDK7/Cyclin H/MAT1 complex (Homo sapiens, UniProt P50613). Kind of assay: CDK7 inhibition assay (Caliper/LabChip EZ Reader kinase assay). The class given is biochemical. The conditions noted are these: Table 1; CDK7/Cyclin H/MAT1 6 nM, ATP 2 mM, 35 min at 27° C. The method, boiled down:
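A Perkin Elmer Caliper/LabChip EZ Reader (Waltham, MA) platform served as the basis for this CDK7 kinase inhibition assay. The work was carried out by Biortus Biosciences, located in Jiangyin, Jiangsu Province, P.R. of China. Each CDK studied had its own kinase assay, and compounds were evaluated for their ability to block CDK7 activity.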

In assay [2] the target is T1, CDK12 (aa686-1082)/Cyclin K complex (Homo sapiens, UniProt Q9NYV4).
T1 construct: CDK12 (aa686-1082)/Cyclin K complex
T1 sequence (Q9NYV4 686-1082, species assumed): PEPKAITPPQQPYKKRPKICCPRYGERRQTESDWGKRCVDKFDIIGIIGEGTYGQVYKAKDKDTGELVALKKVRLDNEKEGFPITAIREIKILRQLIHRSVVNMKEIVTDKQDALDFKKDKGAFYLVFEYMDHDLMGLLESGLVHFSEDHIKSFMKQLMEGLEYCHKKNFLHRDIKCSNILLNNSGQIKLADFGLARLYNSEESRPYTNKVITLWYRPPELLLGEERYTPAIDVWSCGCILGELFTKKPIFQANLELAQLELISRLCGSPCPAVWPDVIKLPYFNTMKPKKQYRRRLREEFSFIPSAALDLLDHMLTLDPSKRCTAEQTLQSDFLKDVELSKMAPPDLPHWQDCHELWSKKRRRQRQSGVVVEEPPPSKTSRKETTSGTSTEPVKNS
T1 sequence (O75909 whole entry partner, species assumed, the tested form may be a part): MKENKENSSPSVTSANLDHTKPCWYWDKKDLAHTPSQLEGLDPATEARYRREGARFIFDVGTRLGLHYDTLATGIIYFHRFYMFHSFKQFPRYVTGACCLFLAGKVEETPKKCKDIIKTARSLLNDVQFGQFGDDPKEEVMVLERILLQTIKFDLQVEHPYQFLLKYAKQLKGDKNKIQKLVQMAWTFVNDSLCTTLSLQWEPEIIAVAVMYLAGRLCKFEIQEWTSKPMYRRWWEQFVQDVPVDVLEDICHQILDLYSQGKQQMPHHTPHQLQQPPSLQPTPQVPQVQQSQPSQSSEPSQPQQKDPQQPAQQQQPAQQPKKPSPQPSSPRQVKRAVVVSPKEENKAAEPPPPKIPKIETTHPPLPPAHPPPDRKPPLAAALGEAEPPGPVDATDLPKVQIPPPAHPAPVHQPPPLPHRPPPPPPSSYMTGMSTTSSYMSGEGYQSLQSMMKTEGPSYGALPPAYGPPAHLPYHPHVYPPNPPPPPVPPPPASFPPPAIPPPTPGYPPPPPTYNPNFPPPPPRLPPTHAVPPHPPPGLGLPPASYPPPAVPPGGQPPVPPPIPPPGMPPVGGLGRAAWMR
Kind of assay: CDK12 inhibition assay (Caliper/LabChip EZ Reader kinase assay). The format is biochemical. To be noted: Table 1; CDK12 (aa686-1082)/Cyclin K 50 nM, ATP 2 mM, 3 hr at 27° C.

Another assay addresses CDK2/Cyclin E1 complex (Homo sapiens, UniProt P24941). The experiment in a line: CDK2 inhibition assay (Caliper/LabChip EZ Reader kinase assay). The class given is biochemical. The conditions noted are these: Table 1; CDK2/Cyclin E1 0.5 nM, ATP 2 mM, 35 min at 27° C. The method, boiled down: (§1)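 Caliper/LabChip EZ Reader mobility-shift assays. CDK9/Cyclin T1 at 8 nM with 2 μM 5-FAM-CDK9tide peptide and 10 mM MgCl2; CDK2/Cyclin E1 at 0.5 nM with 2 μM 5-FAM-CDK7tide and 2 mM MgCl2.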

A further assay has as its system HCC70 cells. The experiment in a line: Inhibition of proliferation of HCC70 cells (CyQUANT Direct Cell Proliferation Assay, 72 hour). The format is cell-based, human. The conditions noted are these: read-out: Inhibition of Proliferation of HCC70 Cells (calculated IC50). As for the experimental part:
HCC70 cells are a cell line derived from human triple negative breast cancer. […] Known CDK inhibitors dinaciclib or N-((1S,3R)-3-((5-chloro-4-(1H-indol-3-yl) pyrimidin-2-yl)amino)cyclohexyl)-5-((E)-4-(dimethylamino)but-2-enamido)picolinamide and triptolide were used as positive controls. […] The cells were cultured at 37° C. in a humidified chamber in the presence of 5% CO2. Proliferation assays were conducted over a 72 hour time period. CyQUANT® Direct Cell Proliferation Assay (Life Technologies, Chicago, IL USA) was used to assess the anti-proliferative effects of the compounds following manufacturer's directions and utilizing the reagents supplied with the CyQUANT® Direct Cell kit.

The next assay addresses CDK9/Cyclin T1 complex (Homo sapiens, UniProt P50750). Kind of assay: CDK9 inhibition assay (Caliper/LabChip EZ Reader kinase assay). The format is biochemical. The conditions noted are these: Table 1; CDK9/Cyclin T1 8 nM, ATP 2 mM, 15 min at 27° C. The procedure, abridged:
as §1

CDK9/Cyclin T1 complex, sequence (P50750 whole entry, species assumed): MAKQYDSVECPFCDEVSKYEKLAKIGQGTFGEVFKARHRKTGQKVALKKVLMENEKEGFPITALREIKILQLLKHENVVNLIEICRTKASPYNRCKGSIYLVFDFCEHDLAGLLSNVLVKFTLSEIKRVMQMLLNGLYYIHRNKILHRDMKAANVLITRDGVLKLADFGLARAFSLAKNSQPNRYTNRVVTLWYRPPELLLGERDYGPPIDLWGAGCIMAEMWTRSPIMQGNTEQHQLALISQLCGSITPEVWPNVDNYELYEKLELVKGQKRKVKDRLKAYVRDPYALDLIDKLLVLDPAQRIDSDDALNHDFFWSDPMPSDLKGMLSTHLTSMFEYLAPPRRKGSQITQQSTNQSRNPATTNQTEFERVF
CDK9/Cyclin T1 complex, sequence (O60563 whole entry partner, species assumed): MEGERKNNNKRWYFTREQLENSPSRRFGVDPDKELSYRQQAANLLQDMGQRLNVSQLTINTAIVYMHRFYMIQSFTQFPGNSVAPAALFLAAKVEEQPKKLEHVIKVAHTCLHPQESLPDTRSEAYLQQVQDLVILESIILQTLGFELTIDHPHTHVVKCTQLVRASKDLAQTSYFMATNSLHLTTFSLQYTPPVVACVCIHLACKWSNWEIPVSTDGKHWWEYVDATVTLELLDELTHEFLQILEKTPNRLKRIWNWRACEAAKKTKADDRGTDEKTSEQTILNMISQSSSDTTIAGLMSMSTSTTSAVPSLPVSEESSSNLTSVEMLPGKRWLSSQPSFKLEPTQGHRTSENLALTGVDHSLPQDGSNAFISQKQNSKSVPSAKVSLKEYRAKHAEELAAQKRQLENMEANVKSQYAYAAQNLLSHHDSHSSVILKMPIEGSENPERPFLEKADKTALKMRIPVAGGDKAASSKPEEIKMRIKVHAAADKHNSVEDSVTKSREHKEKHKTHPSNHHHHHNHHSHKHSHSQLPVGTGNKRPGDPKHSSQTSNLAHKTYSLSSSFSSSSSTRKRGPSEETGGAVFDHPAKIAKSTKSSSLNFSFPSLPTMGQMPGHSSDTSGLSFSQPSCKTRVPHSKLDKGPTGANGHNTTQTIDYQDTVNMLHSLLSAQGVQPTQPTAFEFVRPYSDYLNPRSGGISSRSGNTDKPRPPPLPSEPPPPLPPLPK
CDK7/Cyclin H/MAT1 complex, sequence (P50613 whole entry, species assumed): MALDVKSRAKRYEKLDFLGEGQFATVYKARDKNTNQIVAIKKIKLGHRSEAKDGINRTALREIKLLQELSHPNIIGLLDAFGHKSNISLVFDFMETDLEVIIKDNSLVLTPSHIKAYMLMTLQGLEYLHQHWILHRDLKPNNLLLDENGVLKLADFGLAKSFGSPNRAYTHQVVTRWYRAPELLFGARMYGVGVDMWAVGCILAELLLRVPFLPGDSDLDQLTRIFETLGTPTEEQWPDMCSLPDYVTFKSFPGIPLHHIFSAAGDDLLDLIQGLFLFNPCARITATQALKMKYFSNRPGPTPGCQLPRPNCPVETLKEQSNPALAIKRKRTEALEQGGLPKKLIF
CDK7/Cyclin H/MAT1 complex, sequence (P51946 whole entry partner, species assumed): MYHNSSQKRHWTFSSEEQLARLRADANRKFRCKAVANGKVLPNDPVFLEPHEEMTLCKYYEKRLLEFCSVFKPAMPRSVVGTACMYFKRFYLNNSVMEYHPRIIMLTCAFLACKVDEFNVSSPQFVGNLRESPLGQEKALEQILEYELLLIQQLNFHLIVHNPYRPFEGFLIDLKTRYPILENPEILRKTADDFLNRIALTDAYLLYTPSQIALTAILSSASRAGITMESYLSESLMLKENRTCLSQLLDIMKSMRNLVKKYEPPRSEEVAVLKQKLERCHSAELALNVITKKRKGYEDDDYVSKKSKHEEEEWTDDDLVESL
CDK7/Cyclin H/MAT1 complex, sequence (P51948 whole entry partner, species assumed): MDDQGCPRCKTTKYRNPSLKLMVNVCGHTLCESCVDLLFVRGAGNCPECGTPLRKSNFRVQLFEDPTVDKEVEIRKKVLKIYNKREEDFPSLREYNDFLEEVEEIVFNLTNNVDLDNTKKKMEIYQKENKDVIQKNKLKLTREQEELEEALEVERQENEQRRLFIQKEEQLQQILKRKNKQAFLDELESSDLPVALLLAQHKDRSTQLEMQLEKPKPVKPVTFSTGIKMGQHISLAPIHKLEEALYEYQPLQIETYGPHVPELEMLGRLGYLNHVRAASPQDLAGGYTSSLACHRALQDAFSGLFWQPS

For `CP(C)(=O)c1cccc2c(-c3nc(N[C@H]4CCCNC4)ncc3C(F)(F)F)c[nH]c12` (single isomer, unassigned) [Compound 353], the IC50 in assay [1] was under 0.02 µM; in assay [2], 0.2 to 5 µM; against CDK2/Cyclin E1 complex it was 0.2 to 5 µM; in the assay with HCC70 cells (Homo sapiens, HCC70, 72 h), under 0.1 µM; against CDK9/Cyclin T1 complex, over 5 µM.

Take `CC1CCNCC1Nc1ncc(C(F)(F)F)c(-c2c[nH]c3ccccc23)n1` (single isomer, unassigned) [Compound 372]: the IC50 is 0.02 to 0.2 µM in assay [1]; 0.2 to 5 µM in assay [2]; 0.2 to 5 µM at CDK2/Cyclin E1 complex; 0.1 to 1 µM with HCC70 cells; 0.2 to 5 µM at CDK9/Cyclin T1 complex.

Turning to `CC1CCNCC1Nc1ncc(C(F)(F)F)c(-c2c[nH]c3ccccc23)n1` (single isomer, unassigned) [Compound 373], the IC50 was 0.02 to 0.2 µM in assay [1]; over 5 µM in assay [2]; over 5 µM on CDK2/Cyclin E1 complex; 1 to 5 µM in the assay on HCC70 cells; over 5 µM at CDK9/Cyclin T1 complex.

On to `N#Cc1ccc2c(-c3nc(N[C@@H]4CCC5(CCC5)NC4)ncc3C(F)(F)F)c[nH]c2c1` (single isomer, unassigned) [Compound 377], for which the IC50 was under 0.02 µM in assay [1]; 0.2 to 5 µM in assay [2]; over 5 µM against CDK2/Cyclin E1 complex; 0.1 to 1 µM in the assay with HCC70 cells (Homo sapiens, HCC70, 72 h); 0.2 to 5 µM at CDK9/Cyclin T1 complex.

Turning to `N#Cc1ccc2c(-c3nc(N[C@H]4CCC5(CCC5)NC4)ncc3C(F)(F)F)c[nH]c2c1` (single isomer, unassigned) [Compound 378], the IC50 in assay [1] is 0.02 to 0.2 µM; in assay [2] it was over 5 µM; against CDK2/Cyclin E1 complex, over 5 µM; in the assay with HCC70 cells (Homo sapiens, HCC70, 72 h), 1 to 5 µM; at CDK9/Cyclin T1 complex, over 5 µM.

For the compound `CCc1cnc(N[C@H]2CCCNC2)nc1-c1c[nH]c2c(S(C)(=O)=O)cccc12` [Compound 269, (S)-5-ethyl-4-(7-(methylsulfonyl)-1H-indol-3-yl)-N-(piperidin-3-yl)pyrimidin-2-amine], the IC50 in assay [1] is under 0.02 µM; in assay [2], 0.2 to 5 µM; at CDK2/Cyclin E1 complex it was 0.2 to 5 µM; in the assay with HCC70 cells (Homo sapiens, HCC70, 72 h), 0.1 to 1 µM; at CDK9/Cyclin T1 complex it was 0.2 to 5 µM.

Take `CO[C@H]1CCN(C(=O)c2ccc3c(-c4nc(N[C@H]5CCCNC5)ncc4C(F)(F)F)c[nH]c3c2)C1` [Compound 280]: the IC50 in assay [1] is 0.02 to 0.2 µM; in assay [2], 0.2 to 5 µM; against CDK2/Cyclin E1 complex, over 5 µM; in the assay with HCC70 cells it was 0.1 to 1 µM; at CDK9/Cyclin T1 complex, over 5 µM.

On to `CC1(O)CCN(C(=O)c2ccc3c(-c4nc(N[C@H]5CCCNC5)ncc4C(F)(F)F)c[nH]c3c2)CC1` [Compound 282, (4-hydroxy-4-methyl-1-piperidyl)-[3-[2-[[(3S)-3-piperidyl]amino]-5-(trifluoromethyl)pyrimidin-4-yl]-1H-indol-6-yl] methanone], for which the IC50 in assay [1] is under 0.02 µM; in assay [2], 0.2 to 5 µM; against CDK2/Cyclin E1 complex it was 0.2 to 5 µM; in the assay on HCC70 cells (Homo sapiens, HCC70, 72 h), 0.1 to 1 µM; at CDK9/Cyclin T1 complex, over 5 µM.

On to `COCn1cc(-c2nc(N[C@H]3CCCNC3)ncc2C(F)(F)F)c2cccc(C#N)c21` [Compound 295], for which the IC50 in assay [1] was 0.02 to 0.2 µM; in assay [2] it was over 5 µM; against CDK2/Cyclin E1 complex it was over 5 µM; in the assay on HCC70 cells, 1 to 5 µM; at CDK9/Cyclin T1 complex, over 5 µM.

Consider `Cn1cc(-c2nc(N[C@H]3CCCNC3)ncc2C(F)(F)F)c2cccc(S(C)(=O)=O)c21` [Compound 296], for which the IC50 in assay [1] was 0.02 to 0.2 µM; in assay [2] it was over 5 µM; against CDK2/Cyclin E1 complex, over 5 µM; with HCC70 cells, 1 to 5 µM; at CDK9/Cyclin T1 complex, over 5 µM.

For the compound `CNC(=O)c1ccc2c(-c3nc(N[C@H]4CCCNC4)ncc3C(F)(F)F)c[nH]c2n1` [Compound 297], the IC50 in assay [1] was under 0.02 µM; in assay [2], 0.2 to 5 µM; against CDK2/Cyclin E1 complex, 0.2 to 5 µM; in the assay with HCC70 cells (Homo sapiens, HCC70, 72 h), under 0.1 µM; at CDK9/Cyclin T1 complex, 0.2 to 5 µM.

With `CCN1CCC[C@H](Nc2ncc(C(F)(F)F)c(-c3c[nH]c4cc(S(C)(=O)=O)ccc34)n2)C1` [Compound 298], the IC50 in assay [1] is under 0.02 µM; in assay [2] it was 0.2 to 5 µM; against CDK2/Cyclin E1 complex, 0.2 to 5 µM; in the assay on HCC70 cells (Homo sapiens, HCC70, 72 h), 0.1 to 1 µM; on CDK9/Cyclin T1 complex it was over 5 µM.

As to `N#Cc1ccc2c(-c3nc(N[C@H]4CCCNC4)ncc3OC(F)F)c[nH]c2c1` [Compound 301, 3-[5-(difluoromethoxy)-2-[[(3S)-3-piperidyl]amino]pyrimidin-4-yl]-1H-indole-6-carbonitrile], the IC50 in assay [1] was 0.02 to 0.2 µM; in assay [2], over 5 µM; against CDK2/Cyclin E1 complex, over 5 µM; in the assay with HCC70 cells (Homo sapiens, HCC70, 72 h) it was 1 to 5 µM; against CDK9/Cyclin T1 complex, over 5 µM.

Consider `O=C1CCN(C(=O)c2ccc3c(-c4nc(N[C@H]5CCCNC5)ncc4C(F)(F)F)c[nH]c3c2)C1` [Compound 302, 1-[3-[2-[[(3S)-3-piperidyl]amino]-5-(trifluoromethyl)pyrimidin-4-yl]-1H-indole-6-carbonyl] pyrrolidin-3-one], for which the IC50 in assay [1] is 0.02 to 0.2 µM; in assay [2], 0.2 to 5 µM; against CDK2/Cyclin E1 complex, 0.2 to 5 µM; with HCC70 cells (Homo sapiens, HCC70, 72 h), 0.1 to 1 µM; at CDK9/Cyclin T1 complex it was 0.2 to 5 µM.

With `CNC(=O)c1cccc2c(-c3nc(N[C@H]4CCCNC4)ncc3C(F)(F)F)cn(COC)c12` [Compound 304], the IC50 in assay [1] is over 5 µM; in assay [2] it was over 5 µM; against CDK2/Cyclin E1 complex, over 5 µM; with HCC70 cells, 1 to 5 µM; against CDK9/Cyclin T1 complex, over 5 µM.

For the compound `FC(F)(F)Sc1cnc(NC2CCCNC2)nc1-c1c[nH]c2ccccc12` (stereo not shown) [Compound 305, 4-(1H-indol-3-yl)-N-(piperidin-3-yl)-5-((trifluoromethyl)thio)pyrimidin-2-amine], the IC50 is under 0.02 µM in assay [1]; 0.2 to 5 µM in assay [2]; 0.2 to 5 µM at CDK2/Cyclin E1 complex; 1 to 5 µM with HCC70 cells (Homo sapiens, HCC70, 72 h); 0.2 to 5 µM at CDK9/Cyclin T1 complex.

Turning to `O=C(c1ccc2c(-c3nc(N[C@H]4CCCNC4)ncc3C(F)(F)F)c[nH]c2c1)N1C[C@H](O)C(F)(F)C1` [Compound 308, [(4S)-3,3-difluoro-4-hydroxy-pyrrolidin-1-yl]-[3-[2-[[(3S)-3-piperidyl]amino]-5-(trifluoromethyl)pyrimidin-4-yl]-1H-indol-6-yl]methanone], the IC50 was under 0.02 µM in assay [1]; 0.2 to 5 µM in assay [2]; 0.2 to 5 µM at CDK2/Cyclin E1 complex; 0.1 to 1 µM in the assay with HCC70 cells (Homo sapiens, HCC70, 72 h); 0.2 to 5 µM on CDK9/Cyclin T1 complex.

As for `Oc1ncccc1-c1ccc2c(-c3nc(N[C@H]4CCCNC4)ncc3C(F)(F)F)c[nH]c2c1` [Compound 310, 3-[3-[2-[[(3S)-3-piperidyl]amino]-5-(trifluoromethyl)pyrimidin-4-yl]-1H-indol-6-yl]pyridin-2-ol], the IC50 was under 0.02 µM in assay [1]; 0.2 to 5 µM in assay [2]; 0.2 to 5 µM against CDK2/Cyclin E1 complex; 0.1 to 1 µM in the assay with HCC70 cells (Homo sapiens, HCC70, 72 h); over 5 µM against CDK9/Cyclin T1 complex.

`Cc1c(-c2ccc3c(-c4nc(N[C@H]5CCCNC5)ncc4C(F)(F)F)c[nH]c3c2)c[nH]c(=O)c1C#N` [Compound 311, 4-methyl-2-oxo-5-[3-[2-[[(3S)-3-piperidyl]amino]-5-(trifluoromethyl)pyrimidin-4-yl]-1H-indol-6-yl]-1H-pyridine-3-carbonitrile]: the IC50 in assay [1] was under 0.02 µM; in assay [2], 0.2 to 5 µM; at CDK2/Cyclin E1 complex, 0.2 to 5 µM; in the assay on HCC70 cells (Homo sapiens, HCC70, 72 h) it was 1 to 5 µM; against CDK9/Cyclin T1 complex it was 0.2 to 5 µM.

With `FC(F)(F)c1cnc(N[C@H]2CCCNC2)nc1-c1c[nH]c2cc(-c3ccc4[nH]cnc4c3)ccc12` [Compound 313], the IC50 in assay [1] was under 0.02 µM; in assay [2] it was 0.2 to 5 µM; at CDK2/Cyclin E1 complex, 0.2 to 5 µM; with HCC70 cells, 0.1 to 1 µM; on CDK9/Cyclin T1 complex it was 0.2 to 5 µM.

With `NC(=O)c1cccc(-c2ccc3c(-c4nc(N[C@H]5CCCNC5)ncc4C(F)(F)F)c[nH]c3c2)c1` [Compound 314], the IC50 was under 0.02 µM in assay [1]; 0.2 to 5 µM in assay [2]; 0.2 to 5 µM on CDK2/Cyclin E1 complex; 0.1 to 1 µM with HCC70 cells; 0.2 to 5 µM against CDK9/Cyclin T1 complex.

For `OCc1cccc(-c2ccc3c(-c4nc(N[C@H]5CCCNC5)ncc4C(F)(F)F)c[nH]c3c2)n1` [Compound 316], the IC50 in assay [1] was under 0.02 µM; in assay [2] it was 0.2 to 5 µM; at CDK2/Cyclin E1 complex it was 0.2 to 5 µM; in the assay on HCC70 cells it was 0.1 to 1 µM; on CDK9/Cyclin T1 complex it was over 5 µM.

With `OCc1cncc(-c2ccc3c(-c4nc(N[C@H]5CCCNC5)ncc4C(F)(F)F)c[nH]c3c2)c1` [Compound 318], the IC50 in assay [1] was under 0.02 µM; in assay [2], 0.2 to 5 µM; on CDK2/Cyclin E1 complex, 0.2 to 5 µM; in the assay on HCC70 cells it was 0.1 to 1 µM; on CDK9/Cyclin T1 complex, 0.2 to 5 µM.

(Values after patent US20240360165A1, “INHIBITORS OF CYCLIN DEPENDENT KINASE 7 (CDK7)” (Syros Pharmaceuticals, Inc., priority 2016, published 2024).)
